For 19 compounds, IC50 or EC50 (potency, activation or inhibition) results are on record in US9000022B2 (Exelixis Patent Company LLC, priority 2005, dated 2015).

The test system of this assay is LXRα and/or LXRβ. As to the kind of experiment: Co-transfection assay (LXRE luciferase reporter, CV-1 cells). Format: cell-based, human. The following applies: tested as described in Example 33; IC50 or EC50 for LXRα and/or LXRβ, isoform not specified; read-out: activity (IC50 or EC50 for LXR). In short, it runs like this: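 CV-1 cells transiently co-transfected with full-length human LXRα or LXRβ plus RXRα, an LXRE×1-Tk-luciferase reporter and a β-galactosidase control. Compounds incubated 20 h at 37 °C (≤1% DMSO; screen at 10 μM final); luciferase read after lysis. EC50/IC50 from 8-point half-log curves (4 wells per point, ≥3 experiments); efficacy relative to a reference agonist high control and DMSO.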
Background: In a reporter assay the amount or activity of a reporter protein is the signal.

On to `CC(C)(CO)NC(=O)c1cn(-c2ccc(-c3cccc(S(C)(=O)=O)c3)cc2Cl)c(-c2c(Cl)cccc2Cl)n1` [Example 463, 1-(3-chloro-3′-(methylsulfonyl)biphenyl-4-yl)-2-(2,6-dichlorophenyl)-N-(1-hydroxy-2-methylpropan-2-yl)-1H-imidazole-4-carboxamide], for which the IC50 or EC50 (potency, activation or inhibition) is less than 1000 nM. The same measure for `CCS(=O)(=O)c1cccc(-c2ccc(-n3cc(C(=O)NC(C)(C)CO)nc3-c3c(Cl)cccc3Cl)c(Cl)c2)c1` [Example 464, 1-(3-chloro-3′-(ethylsulfonyl)biphenyl-4-yl)-2-(2,6-dichlorophenyl)-N-(1-hydroxy-2-methylpropan-2-yl)-1H-imidazole-4-carboxamide]: less than 1000 nM. As for `CC(C)(C)NC(=O)c1cn(-c2ccc(-c3cccc(S(C)(=O)=O)c3)cc2Cl)c(-c2c(Cl)cccc2Cl)n1` [Example 465, N-tert-butyl-1-(3-chloro-3′-(methylsulfonyl)biphenyl-4-yl)-2-(2,6-dichlorophenyl)-1H-imidazole-4-carboxamide], the figure is less than 1000 nM; as for `Cc1cc(-c2ccc(C(=O)O)cc2Cl)ccc1-n1cc(C(C)(C)O)nc1-c1c(Cl)cccc1Cl` [Example 466, 2-chloro-4′-(2-(2,6-dichlorophenyl)-4-(2-hydroxypropan-2-yl)-1H-imidazol-1-yl)-3′-methylbiphenyl-4-carboxylic acid], more than 10000 nM; as for `CC(C)(O)c1cn(-c2ccc(-c3cc(S(C)(=O)=O)ccc3Cl)cc2Cl)c(-c2c(Cl)cccc2Cl)n1` [Example 467, 2-(1-(2′,3-dichloro-5′-(methyl-sulfonyl)biphenyl-4-yl)-2-(2,6-dichlorophenyl)-1H-imidazol-4-yl)propan-2-ol], less than 1000 nM. Take `Cc1cc(-c2cc(S(C)(=O)=O)ccc2Cl)ccc1-n1cc(C(C)(C)O)nc1Cc1cccc(Cl)c1Cl` [Example 468, 2-(1-(2′-chloro-3-methyl-5′-(methylsulfonyl)biphenyl-4-yl)-2-(2,3-dichlorobenzyl)-1H-imidazol-4-yl)propan-2-ol]: the IC50 or EC50 (potency, activation or inhibition) was less than 1000 nM. The same measure for `CC(C)(O)c1cn(-c2ccc(-c3ccc4c(c3)S(=O)(=O)CC4O)cc2Cl)c(-c2c(F)cccc2Cl)n1` (stereo not shown) [Example 469, 6-{3-chloro-4-[2-(2-chloro-6-fluorophenyl)-4-(1-hydroxy-1-methylethyl)-1H-imidazol-1-yl]phenyl}-2,3-dihydro-1-benzo-thiophene-3-ol 1,1-dioxide]: 1000 to 10000 nM.

In the case of `CS(=O)(=O)c1cccc(-c2ccc(-n3cc(C(=O)NCCO)nc3-c3c(Cl)cccc3Cl)c(Cl)c2)c1` [Example 470, 1-(3-chloro-3′-(methylsulfonyl)biphenyl-4-yl)-2-(2,6-dichlorophenyl)-N-(2-hydroxyethyl)-1H-imidazole-4-carboxamide], the IC50 or EC50 (potency, activation or inhibition) is less than 1000 nM. The same measure for `CCS(=O)(=O)c1cccc(-c2ccc(-n3cc(C(=O)NCCO)nc3-c3c(Cl)cccc3Cl)c(Cl)c2)c1` [Example 471, 1-(3-chloro-3′-(ethylsulfonyl)biphenyl-4-yl)-2-(2,6-dichlorophenyl)-N-(2-hydroxyethyl)-1H-imidazole-4-carboxamide]: less than 1000 nM; for `CC(C)(O)CNC(=O)c1cn(-c2ccc(-c3cccc(S(C)(=O)=O)c3)cc2Cl)c(-c2c(Cl)cccc2Cl)n1` [Example 472, 1-(3-chloro-3′-(methylsulfonyl)biphenyl-4-yl)-2-(2,6-dichlorophenyl)-N-(2-hydroxy-2-methylpropyl)-1H-imidazole-4-carboxamide]: less than 1000 nM.

For the compound `CCS(=O)(=O)c1cccc(-c2ccc(-n3cc(C(=O)NCC(C)(C)O)nc3-c3c(Cl)cccc3Cl)c(Cl)c2)c1` [Example 473, 1-(3-chloro-3′-(ethylsulfonyl)biphenyl-4-yl)-2-(2,6-dichlorophenyl)-N-(2-hydroxy-2-methylpropyl)-1H-imidazole-4-carboxamide], the IC50 or EC50 (potency, activation or inhibition) was less than 1000 nM.

`CC(C)(O)c1cn(-c2ccc(-c3cccc(S(C)(=O)=O)c3)cc2)c(Cc2cc(Cl)ccc2F)n1` [Example 474, 2-(2-(5-chloro-2-fluorobenzyl)-1-(3′-(methylsulfonyl)biphenyl-4-yl)-1H-imidazol-4-yl)propan-2-ol]: the IC50 or EC50 (potency, activation or inhibition) was less than 1000 nM.

Take `CC(C)(O)c1cn(-c2ccc(-c3ccc(CO)cc3)cc2)c(-c2cccc(Cl)c2Cl)n1` [Example 475, 2-(2-(2,3-dichlorophenyl)-1-(4′-(hydroxymethyl)biphenyl-4-yl)-1H-imidazol-4-yl)propan-2-ol]: the IC50 or EC50 (potency, activation or inhibition) was 1000 to 10000 nM.

`CC(C)(O)c1cn(-c2ccc(-c3cccc(CO)c3)cc2)c(-c2cccc(Cl)c2Cl)n1` [Example 476, 2-(2-(2,3-dichlorophenyl)-1-(3′-(hydroxymethyl)biphenyl-4-yl)-1H-imidazol-4-yl)propan-2-ol]: the IC50 or EC50 (potency, activation or inhibition) lay in the range of 1000 to 10000 nM. The same measure for `CC(C)(O)c1ccc(-c2ccc(-n3cc(C(C)(C)O)nc3-c3cccc(Cl)c3Cl)cc2)cc1` [Example 477, 2-(2-(2,3-dichlorophenyl)-1-(4′-(2-hydroxypropan-2-yl)biphenyl-4-yl)-1H-imidazol-4-yl)propan-2-ol]: 1000 to 10000 nM; for `CC(C)(CO)c1cn(-c2ccc(-c3cccc(S(C)(=O)=O)c3)cc2)c(-c2c(Cl)cccc2Cl)n1` [Example 479, 2-(2-(2,6-dichlorophenyl)-1-(3′-(methylsulfonyl)biphenyl-4-yl)-1H-imidazol-4-yl)-2-methylpropan-1-ol]: less than 1000 nM. As for `CC(C)(CO)NC(=O)c1cn(-c2ccc(-c3cccc(C(C)(C)O)c3)cc2Cl)c(-c2c(Cl)cccc2Cl)n1` [Example 480, 1-(3-chloro-3′-(2-hydroxypropan-2-yl)biphenyl-4-yl)-2-(2,6-dichlorophenyl)-N-(1-hydroxy-2-methylpropan-2-yl)-1H-imidazole-4-carboxamide], the figure is less than 1000 nM; as for `CC(C)(CO)NC(=O)c1cn(-c2ccc(-c3cccc(S(C)(=O)=O)c3)cc2)c(-c2c(Cl)cccc2Cl)n1` [Example 481, 2-(2,6-dichlorophenyl)-N-(1-hydroxy-2-methylpropan-2-yl)-1-(3′-(methylsulfonyl)biphenyl-4-yl)-1H-imidazole-4-carboxamide], less than 1000 nM; as for `CCS(=O)(=O)c1cccc(-c2ccc(-n3cc(C(C)(C)O)nc3Cc3cc(Cl)ccc3F)cc2)c1` [Example 482, 2-(2-(5-chloro-2-fluorobenzyl)-1-(3′-(ethylsulfonyl)biphenyl-4-yl)-1H-imidazol-4-yl)propan-2-ol], less than 1000 nM.
